Results: patent US9573907B2, “2, 4-pyrimidine derivatives and use thereof” (SNU R&DB FOUNDATION, priority 2009, dated 2017)

Tests used:
[1] = molecular target: T1, interaction of gp96 with KDELR1 (Mus musculus, UniProt P08113); assay: Co-immunoprecipitation of gp96 with KDELR1 in RAW24.7 cells; type: cell-based; conditions: 10 μM, 24 h
T1 construct: endogenous in cells; host or cells: RAW24.7 (RAW264.7) cells
Description: (§1) FIGS. 1 to 9 represent suppression of cell surface gp96 by GPM1 reduces DC maturation and B220^+ population in gp96tm transgenic mice. (FIG. 1) Chemical structure of GPM1 (Formula 2) and negative control (NC1, Formula 16) used in this study. (FIG. 2) The dose-dependent effect of GPM1 or NC1 on the AIMP1-gp96 interaction using ELISA method as described. The indicated concentrations of the two compounds and biotin-conjugated murine gp96 were added to AIMP1 coated on the surface of microtiter wells, and gp96 bound to AIMP1 was detected with strepavidin-conjugated peroxidase. (FIG. 3) The binding of GPM1 to gp96 was examined by surface plasmon resonance (SPR). GPM1 at the indicated concentrations was injected to immobilized gp96 and the binding was measured using Biacore 3000. The response data were processed using data from a reference surface and buffer injections. Each concentration was tested in triplicate. (FIG. 4) RAW24.7 cells were treated with 10 μM GPM1 for 24 h. Cell lysates were immunoprecipitated with control IgG or anti-gp96 antibody and the immunoprecipitated proteins were immunoblotted with anti-KDELR1, antiAIMP1 and gp96 antibodies. WCL means whole cell lysate. […] TNFα secreted from BMDCs was quantified by ELISA. […]

bone marrow-derived DCs = assay: DC maturation assay (secreted TNFα); type: cell-based, mice; conditions: AIMP1−/− splenocytes pretreated 10 μM, 24 h; compared to NC1
Description: as §1

[2] = tested on: cell surface gp96 of splenocytes isolated from C57BL/6 mice; assay: Flow cytometry of cell surface gp96 on splenocytes; type: cell-based; conditions: 10 μM, 24 h
Description: as §1

T1 sequence (P08113 22-802): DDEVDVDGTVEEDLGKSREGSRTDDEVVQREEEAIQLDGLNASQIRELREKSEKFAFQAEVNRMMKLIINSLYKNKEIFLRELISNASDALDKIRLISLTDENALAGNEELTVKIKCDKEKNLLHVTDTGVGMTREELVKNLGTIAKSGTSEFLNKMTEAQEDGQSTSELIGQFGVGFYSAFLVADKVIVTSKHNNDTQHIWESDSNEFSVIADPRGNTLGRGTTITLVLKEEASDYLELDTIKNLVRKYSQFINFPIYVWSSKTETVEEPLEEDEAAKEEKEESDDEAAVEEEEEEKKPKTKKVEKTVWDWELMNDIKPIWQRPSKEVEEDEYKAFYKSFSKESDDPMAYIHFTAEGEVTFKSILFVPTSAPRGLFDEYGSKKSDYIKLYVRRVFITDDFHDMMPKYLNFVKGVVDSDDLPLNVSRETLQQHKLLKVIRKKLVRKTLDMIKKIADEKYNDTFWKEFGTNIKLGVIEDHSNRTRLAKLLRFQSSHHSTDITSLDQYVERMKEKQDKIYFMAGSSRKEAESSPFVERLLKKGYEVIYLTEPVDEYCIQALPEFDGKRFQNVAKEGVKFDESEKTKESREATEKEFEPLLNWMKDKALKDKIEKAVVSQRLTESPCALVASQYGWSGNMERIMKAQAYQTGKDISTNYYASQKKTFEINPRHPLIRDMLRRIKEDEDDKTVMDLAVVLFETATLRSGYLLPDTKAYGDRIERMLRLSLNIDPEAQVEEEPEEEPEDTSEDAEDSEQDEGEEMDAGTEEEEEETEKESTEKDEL

SMILES: COC(=O)[C@@H](Oc1nc(OC)cc(OC)n1)C(C)C [GPM1, (S)-methyl 2-(4,6-dimethoxypyrimidin-2-yloxy)-3-methylbutanoate]
- interaction of gp96 with KDELR1 ([1]; RAW24.7 cells, co-immunoprecipitation): increased
- cellular levels of gp96, KDER1 and AIMP1 ([1]; whole cell lysate): did not affect
- amount of secreted TNF-α (bone marrow-derived DCs): significantly reduced
- surface gp96 of mouse splenocytes [2]: decreased
